Patent US12319674B2, “Isatin derivatives” (KING SAUD UNIVERSITY, priority 2020, dated 2025)

Key:
Experiment in all cases: NCI-60 Human Tumor Cell Lines Screen, one-dose screen
Type in all cases: cell-based
[1] = tested on: Melanoma cells (MDA-MB-435); conditions: MDA-MB-435 cells, 10^-5 M, 2 days
Description: (§1) Anticancer activities of the exemplary isatin derivatives were tested by the NIH National Cancer Institutes (NCI), with results summarized in FIGS. 2A-3B. The anticancer activity was tested by NCI, division of cancer treatment and diagnosis, according to the NCI-60 Human Tumor Cell Lines Screen, one-dose screen (https://dtp.cancer.gov/discovery_development/nci-60/methodology.htm). This screening allows for qualified synthesized chemicals to be subjected to an anticancer test against 60 different cancer cell lines. Briefly, exemplary T1 or T2 was dissolved in DMSO:Glycerol, 9:1, at 4 mmol and kept frozen prior to use. For inoculation, a 96 well microtiter was used for the study of different cell lines. Based on the doubling time for each cell line, the well density varied. The plates were incubated at 37° ° C., 5% CO2, 95% air and 100% relative humidity for 1 day. The exemplary T1 or T2 or a control were added to the plates at a concentration of 10^−5 M. After 2 more days, the plates were fixed and stained to identify growth inhibition relative to cells without drug treatment. Anti-proliferative activity was determined based on careful analysis of historical DTP screening data. Cell death and net growth inhibition were determined based on a time zero control. A value of 100 indicates no growth inhibition. A value of 40 indicates 60% growth inhibition. A value of 0 indicates no net growth over the course of the experiment. A value of −40 indicates 40% lethality.

[2] = tested on: Renal Cancer cells (CAKI-1); conditions: CAKI-1 cells, 10^-5 M, 2 days
Description: as §1

[3] = tested on: Non-Small Cell Lung Cancer cells (EKVX); conditions: 10^-5 M, 2 days
Description: as §1

[4] = tested on: Breast Cancer cells (MDA-MB-468); conditions: MDA-MB-468 cells, 10^-5 M, 2 days
Description: as §1

Compound | anticancer activity compared to control (reduction) [1] | anticancer activity compared to control (reduction) [2] | anticancer activity compared to control (reduction) [3] | anticancer activity compared to control (reduction) [4]
O=C1Nc2ccccc2/C1=N\N=Cc1cccs1 [T1, 3-((E)-(thiophen-2-ylmethylene)hydrazono)indolin-2-one] | ~83% | ~48% | ~54% | –
O=C1Nc2ccc(Cl)cc2/C1=N/N=C/c1ccsc1 [T2, 5-chloro-3-((E)-(thiophen-3-ylmethylene) hydrazono) indolin-2-one] | – | – | – | ~73%
